Legend:
Assay in all cases: HDAC enzyme inhibition, fluorogenic peptide substrate
Type in all cases: biochemical
Settings in all cases: purified human enzyme, fluorogenic peptide substrate 10 μM
HDAC6 = target: T1, HDAC6 (Homo sapiens, UniProt Q9UBN7)
T1 sequence (Q9UBN7 1-1215): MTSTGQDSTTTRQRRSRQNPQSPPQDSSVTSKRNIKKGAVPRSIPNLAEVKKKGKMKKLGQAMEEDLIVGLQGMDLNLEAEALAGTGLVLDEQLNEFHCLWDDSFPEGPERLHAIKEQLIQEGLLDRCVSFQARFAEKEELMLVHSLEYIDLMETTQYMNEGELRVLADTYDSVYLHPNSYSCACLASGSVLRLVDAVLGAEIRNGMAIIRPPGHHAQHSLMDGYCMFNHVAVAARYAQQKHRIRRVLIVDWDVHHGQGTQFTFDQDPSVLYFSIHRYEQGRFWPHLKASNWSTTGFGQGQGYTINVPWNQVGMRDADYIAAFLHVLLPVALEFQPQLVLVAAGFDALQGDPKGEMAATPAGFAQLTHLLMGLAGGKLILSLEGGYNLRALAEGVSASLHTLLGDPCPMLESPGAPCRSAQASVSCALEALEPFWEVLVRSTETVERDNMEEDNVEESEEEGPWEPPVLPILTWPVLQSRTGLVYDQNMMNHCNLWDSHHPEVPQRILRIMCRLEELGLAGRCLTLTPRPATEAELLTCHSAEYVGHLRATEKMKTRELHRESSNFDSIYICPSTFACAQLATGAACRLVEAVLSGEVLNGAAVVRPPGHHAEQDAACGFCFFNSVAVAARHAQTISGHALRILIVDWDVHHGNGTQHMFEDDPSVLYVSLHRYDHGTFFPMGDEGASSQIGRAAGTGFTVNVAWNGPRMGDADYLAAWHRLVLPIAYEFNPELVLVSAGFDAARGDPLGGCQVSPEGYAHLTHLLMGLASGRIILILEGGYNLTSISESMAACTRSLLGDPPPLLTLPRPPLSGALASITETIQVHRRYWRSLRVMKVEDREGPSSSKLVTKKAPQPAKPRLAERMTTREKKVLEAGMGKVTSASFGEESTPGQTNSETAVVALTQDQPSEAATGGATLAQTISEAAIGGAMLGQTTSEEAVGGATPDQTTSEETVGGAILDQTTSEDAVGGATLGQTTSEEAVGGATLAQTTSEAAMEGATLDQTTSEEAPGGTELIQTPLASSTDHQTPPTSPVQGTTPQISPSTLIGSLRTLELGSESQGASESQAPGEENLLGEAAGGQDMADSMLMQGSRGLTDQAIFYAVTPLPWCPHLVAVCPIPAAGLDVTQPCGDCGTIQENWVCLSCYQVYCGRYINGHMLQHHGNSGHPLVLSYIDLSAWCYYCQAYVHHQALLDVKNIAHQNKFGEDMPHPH
Method: (§1) The substrate was incubated with the eleven single HDAC purified enzymes. Upon its deacetylation, the fluorophore was released given rise to fluorescence emission. The latter was detected by a fluorimeter, and the IC50 values of the compounds were determined by analyzing dose-response inhibition curves. TSA and SAHA were used as reference compounds.

HDAC10 = target: T2, HDAC10 (Homo sapiens, UniProt Q969S8)
T2 sequence (Q969S8 1-669): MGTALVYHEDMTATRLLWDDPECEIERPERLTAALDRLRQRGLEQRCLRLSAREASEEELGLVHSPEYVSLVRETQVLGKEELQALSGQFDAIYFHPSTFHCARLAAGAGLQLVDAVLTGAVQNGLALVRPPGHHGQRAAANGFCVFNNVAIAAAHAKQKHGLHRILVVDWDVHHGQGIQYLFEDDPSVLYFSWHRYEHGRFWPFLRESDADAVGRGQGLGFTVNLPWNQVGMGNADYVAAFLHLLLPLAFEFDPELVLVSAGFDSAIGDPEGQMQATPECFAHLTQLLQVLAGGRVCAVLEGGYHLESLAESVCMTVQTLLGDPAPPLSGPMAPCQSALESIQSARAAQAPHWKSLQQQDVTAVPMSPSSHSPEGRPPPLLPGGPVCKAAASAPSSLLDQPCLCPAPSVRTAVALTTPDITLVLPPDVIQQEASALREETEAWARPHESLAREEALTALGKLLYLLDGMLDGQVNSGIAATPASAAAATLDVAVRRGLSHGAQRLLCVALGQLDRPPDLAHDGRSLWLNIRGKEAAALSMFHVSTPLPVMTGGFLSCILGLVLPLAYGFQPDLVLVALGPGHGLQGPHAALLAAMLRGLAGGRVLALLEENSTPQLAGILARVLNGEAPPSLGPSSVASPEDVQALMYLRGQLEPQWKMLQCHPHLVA
Method: as §1

HDAC2 = HDAC2 (Homo sapiens, UniProt Q92769)
Method: as §1

HDAC3 = HDAC3 (Homo sapiens, UniProt O15379)
Method: as §1

HDAC1 = HDAC1 (Homo sapiens, UniProt Q13547)
Method: as §1

HDAC8 = target: T3, HDAC8 (Homo sapiens, UniProt Q9BY41)
T3 sequence (Q9BY41 1-377): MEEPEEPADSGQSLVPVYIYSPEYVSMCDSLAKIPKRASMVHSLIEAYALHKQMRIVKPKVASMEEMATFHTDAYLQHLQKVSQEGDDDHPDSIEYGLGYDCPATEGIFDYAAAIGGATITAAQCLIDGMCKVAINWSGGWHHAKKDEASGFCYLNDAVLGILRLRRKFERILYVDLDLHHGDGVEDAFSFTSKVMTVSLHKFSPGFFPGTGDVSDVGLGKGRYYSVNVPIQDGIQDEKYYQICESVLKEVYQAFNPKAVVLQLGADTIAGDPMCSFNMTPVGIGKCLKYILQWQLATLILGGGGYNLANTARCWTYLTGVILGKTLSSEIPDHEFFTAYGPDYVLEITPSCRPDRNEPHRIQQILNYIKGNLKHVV
Method: as §1

HDAC11 = target: T4, HDAC11 (Homo sapiens, UniProt Q96DB2)
T4 sequence (Q96DB2 1-347): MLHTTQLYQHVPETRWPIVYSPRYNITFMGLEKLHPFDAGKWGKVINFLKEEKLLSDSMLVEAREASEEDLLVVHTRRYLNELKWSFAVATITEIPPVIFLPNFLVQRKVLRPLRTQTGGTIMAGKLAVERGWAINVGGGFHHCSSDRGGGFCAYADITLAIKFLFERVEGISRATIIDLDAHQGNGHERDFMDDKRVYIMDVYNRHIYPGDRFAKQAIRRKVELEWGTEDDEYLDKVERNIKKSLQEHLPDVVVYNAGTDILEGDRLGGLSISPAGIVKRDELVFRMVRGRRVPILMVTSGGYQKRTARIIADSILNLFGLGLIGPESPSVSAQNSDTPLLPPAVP
Method: as §1

HDAC5 = HDAC5 (Homo sapiens, UniProt Q9UQL6)
Method: as §1

HDAC4 = HDAC4 (Homo sapiens, UniProt P56524)
Method: as §1

HDAC7 = target: T5, HDAC7 (Homo sapiens, UniProt Q8WUI4)
T5 sequence (Q8WUI4 1-952): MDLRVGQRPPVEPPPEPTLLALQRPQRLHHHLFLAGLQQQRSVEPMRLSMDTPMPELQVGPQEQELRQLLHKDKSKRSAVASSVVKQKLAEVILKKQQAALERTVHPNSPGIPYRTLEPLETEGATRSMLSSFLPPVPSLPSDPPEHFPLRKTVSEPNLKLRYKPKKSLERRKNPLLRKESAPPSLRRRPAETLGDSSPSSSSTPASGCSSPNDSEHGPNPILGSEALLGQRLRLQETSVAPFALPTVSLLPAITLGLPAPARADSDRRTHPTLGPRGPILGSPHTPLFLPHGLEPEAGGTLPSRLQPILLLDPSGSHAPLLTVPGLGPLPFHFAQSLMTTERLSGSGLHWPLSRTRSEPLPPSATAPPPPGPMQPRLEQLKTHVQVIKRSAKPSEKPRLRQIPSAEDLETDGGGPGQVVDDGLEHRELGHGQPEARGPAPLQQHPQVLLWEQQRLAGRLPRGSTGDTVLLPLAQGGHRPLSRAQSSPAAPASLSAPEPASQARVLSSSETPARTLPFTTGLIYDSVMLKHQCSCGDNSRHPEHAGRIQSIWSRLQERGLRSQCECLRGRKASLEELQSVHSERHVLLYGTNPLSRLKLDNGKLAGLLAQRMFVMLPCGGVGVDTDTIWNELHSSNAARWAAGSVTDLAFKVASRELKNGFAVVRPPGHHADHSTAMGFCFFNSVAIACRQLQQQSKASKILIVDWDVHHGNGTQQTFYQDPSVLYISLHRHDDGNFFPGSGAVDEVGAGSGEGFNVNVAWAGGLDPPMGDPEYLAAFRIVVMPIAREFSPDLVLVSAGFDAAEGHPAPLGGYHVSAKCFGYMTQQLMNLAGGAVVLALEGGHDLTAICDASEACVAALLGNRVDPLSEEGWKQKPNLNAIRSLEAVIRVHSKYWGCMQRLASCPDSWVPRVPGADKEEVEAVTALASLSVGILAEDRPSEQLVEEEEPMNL
Method: as §1, with “curves.” for “curves. TSA and SAHA were used as reference compounds.”

HDAC9 = HDAC9 (Homo sapiens, UniProt Q9UKV0)
Method: as §1, with “curves.” for “curves. TSA and SAHA were used as reference compounds.”

Sequence of HDAC9 (Q9UKV0 whole entry): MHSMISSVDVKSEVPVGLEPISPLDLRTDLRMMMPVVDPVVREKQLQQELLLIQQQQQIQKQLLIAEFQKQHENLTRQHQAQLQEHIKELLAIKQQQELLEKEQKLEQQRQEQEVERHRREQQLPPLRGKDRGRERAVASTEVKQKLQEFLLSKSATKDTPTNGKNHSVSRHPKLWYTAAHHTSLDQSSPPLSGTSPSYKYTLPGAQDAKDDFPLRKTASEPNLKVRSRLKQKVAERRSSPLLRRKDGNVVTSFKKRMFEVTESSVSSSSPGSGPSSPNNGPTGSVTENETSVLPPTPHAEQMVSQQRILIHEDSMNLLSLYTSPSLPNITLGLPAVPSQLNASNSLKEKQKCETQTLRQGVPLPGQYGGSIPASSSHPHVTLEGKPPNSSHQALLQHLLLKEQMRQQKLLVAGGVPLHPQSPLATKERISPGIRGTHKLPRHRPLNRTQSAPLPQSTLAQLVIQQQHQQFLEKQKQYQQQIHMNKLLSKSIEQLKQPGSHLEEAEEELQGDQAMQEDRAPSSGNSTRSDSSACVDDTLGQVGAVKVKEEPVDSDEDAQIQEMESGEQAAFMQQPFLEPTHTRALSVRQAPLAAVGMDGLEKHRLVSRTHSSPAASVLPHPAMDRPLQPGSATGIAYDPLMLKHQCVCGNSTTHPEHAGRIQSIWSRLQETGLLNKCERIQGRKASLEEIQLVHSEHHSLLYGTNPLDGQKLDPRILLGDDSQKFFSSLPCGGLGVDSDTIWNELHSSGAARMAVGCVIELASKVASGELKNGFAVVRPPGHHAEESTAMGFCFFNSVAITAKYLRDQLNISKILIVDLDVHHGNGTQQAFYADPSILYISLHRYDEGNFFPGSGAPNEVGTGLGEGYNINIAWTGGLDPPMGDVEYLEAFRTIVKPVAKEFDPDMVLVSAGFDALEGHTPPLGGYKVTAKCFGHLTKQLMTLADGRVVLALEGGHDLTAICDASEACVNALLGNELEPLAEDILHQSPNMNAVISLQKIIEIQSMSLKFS
Sequence of HDAC2 (Q92769 whole entry): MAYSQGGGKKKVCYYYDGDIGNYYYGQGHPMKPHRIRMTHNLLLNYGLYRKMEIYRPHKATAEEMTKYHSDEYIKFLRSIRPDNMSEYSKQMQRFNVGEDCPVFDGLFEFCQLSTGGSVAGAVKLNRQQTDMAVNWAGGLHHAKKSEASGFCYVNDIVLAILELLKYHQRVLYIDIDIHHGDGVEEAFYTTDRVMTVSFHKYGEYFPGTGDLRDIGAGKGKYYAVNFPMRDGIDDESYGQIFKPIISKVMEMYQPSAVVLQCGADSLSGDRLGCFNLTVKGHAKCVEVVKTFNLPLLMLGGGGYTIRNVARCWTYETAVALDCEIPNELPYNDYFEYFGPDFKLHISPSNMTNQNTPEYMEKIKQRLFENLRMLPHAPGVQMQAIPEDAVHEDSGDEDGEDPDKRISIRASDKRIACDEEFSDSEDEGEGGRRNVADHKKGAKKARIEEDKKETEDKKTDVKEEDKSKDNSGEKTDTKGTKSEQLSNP
Sequence of HDAC1 (Q13547 whole entry): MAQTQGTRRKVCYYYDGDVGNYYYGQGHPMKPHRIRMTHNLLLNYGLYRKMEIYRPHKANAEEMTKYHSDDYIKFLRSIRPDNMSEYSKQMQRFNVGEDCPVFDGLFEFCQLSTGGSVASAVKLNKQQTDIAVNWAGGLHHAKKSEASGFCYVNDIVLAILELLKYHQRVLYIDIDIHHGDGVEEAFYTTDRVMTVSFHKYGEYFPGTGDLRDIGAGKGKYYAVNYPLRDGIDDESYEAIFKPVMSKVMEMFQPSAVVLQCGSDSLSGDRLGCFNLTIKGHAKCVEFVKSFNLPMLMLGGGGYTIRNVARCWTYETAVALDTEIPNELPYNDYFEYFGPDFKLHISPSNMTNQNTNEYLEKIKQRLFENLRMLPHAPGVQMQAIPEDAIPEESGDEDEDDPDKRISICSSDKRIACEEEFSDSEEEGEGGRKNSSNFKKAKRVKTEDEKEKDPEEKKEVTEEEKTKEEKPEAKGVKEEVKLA
Sequence of HDAC4 (P56524 whole entry): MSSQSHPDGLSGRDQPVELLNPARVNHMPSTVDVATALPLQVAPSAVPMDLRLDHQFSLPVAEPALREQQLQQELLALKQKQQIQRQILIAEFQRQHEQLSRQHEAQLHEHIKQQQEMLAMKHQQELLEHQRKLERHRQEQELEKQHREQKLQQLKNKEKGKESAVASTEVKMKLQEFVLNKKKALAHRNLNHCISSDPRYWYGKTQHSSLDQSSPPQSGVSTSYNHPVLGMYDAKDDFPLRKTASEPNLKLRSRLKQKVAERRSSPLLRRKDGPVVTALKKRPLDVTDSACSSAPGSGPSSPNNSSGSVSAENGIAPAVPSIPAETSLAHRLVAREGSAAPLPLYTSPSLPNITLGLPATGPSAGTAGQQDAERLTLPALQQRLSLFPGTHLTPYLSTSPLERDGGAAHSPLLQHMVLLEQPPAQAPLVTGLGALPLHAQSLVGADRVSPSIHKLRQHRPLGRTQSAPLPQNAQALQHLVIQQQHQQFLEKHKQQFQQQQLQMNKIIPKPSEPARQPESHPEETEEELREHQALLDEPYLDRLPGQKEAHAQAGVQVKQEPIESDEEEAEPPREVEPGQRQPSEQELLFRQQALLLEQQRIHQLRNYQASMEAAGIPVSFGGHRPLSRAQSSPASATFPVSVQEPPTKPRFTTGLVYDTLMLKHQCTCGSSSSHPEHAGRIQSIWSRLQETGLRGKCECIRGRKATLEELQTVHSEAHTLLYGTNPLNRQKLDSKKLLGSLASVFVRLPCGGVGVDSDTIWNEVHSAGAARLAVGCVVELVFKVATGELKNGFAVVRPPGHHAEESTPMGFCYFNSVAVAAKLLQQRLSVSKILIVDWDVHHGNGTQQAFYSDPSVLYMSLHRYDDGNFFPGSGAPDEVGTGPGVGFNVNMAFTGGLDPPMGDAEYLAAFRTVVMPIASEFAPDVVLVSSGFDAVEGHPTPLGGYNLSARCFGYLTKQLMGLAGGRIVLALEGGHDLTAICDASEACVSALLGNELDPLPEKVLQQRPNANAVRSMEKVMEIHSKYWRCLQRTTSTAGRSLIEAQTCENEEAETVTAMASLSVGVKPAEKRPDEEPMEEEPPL
Sequence of HDAC5 (Q9UQL6 whole entry): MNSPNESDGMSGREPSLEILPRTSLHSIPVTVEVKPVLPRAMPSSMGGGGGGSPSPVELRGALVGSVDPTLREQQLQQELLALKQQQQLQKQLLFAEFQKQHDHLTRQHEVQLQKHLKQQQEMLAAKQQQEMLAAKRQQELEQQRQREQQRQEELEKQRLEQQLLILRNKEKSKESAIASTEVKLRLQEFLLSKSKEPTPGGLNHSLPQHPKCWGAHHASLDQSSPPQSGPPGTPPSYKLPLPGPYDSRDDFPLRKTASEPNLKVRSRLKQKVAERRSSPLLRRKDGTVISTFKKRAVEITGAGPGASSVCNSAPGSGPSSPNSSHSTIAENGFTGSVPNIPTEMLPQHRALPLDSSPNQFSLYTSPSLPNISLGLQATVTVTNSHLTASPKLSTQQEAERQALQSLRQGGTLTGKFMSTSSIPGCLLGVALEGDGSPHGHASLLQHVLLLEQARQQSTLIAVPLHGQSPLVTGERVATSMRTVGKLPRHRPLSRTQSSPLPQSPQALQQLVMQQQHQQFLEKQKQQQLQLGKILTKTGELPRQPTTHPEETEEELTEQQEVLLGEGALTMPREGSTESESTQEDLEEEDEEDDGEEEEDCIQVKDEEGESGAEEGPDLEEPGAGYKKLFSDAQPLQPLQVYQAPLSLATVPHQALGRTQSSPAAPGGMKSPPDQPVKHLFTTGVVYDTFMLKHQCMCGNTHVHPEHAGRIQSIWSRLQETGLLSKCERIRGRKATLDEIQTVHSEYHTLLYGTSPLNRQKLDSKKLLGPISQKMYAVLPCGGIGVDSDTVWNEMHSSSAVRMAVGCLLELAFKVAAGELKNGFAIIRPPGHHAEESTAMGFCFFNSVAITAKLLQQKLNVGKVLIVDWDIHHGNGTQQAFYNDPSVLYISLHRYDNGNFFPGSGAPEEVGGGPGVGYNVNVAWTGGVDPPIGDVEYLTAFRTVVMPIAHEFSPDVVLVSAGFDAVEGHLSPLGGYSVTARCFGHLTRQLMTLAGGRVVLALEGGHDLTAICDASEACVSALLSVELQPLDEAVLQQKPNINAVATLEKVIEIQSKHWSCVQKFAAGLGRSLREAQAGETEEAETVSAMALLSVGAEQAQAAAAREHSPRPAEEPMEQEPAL
Sequence of HDAC3 (O15379 whole entry): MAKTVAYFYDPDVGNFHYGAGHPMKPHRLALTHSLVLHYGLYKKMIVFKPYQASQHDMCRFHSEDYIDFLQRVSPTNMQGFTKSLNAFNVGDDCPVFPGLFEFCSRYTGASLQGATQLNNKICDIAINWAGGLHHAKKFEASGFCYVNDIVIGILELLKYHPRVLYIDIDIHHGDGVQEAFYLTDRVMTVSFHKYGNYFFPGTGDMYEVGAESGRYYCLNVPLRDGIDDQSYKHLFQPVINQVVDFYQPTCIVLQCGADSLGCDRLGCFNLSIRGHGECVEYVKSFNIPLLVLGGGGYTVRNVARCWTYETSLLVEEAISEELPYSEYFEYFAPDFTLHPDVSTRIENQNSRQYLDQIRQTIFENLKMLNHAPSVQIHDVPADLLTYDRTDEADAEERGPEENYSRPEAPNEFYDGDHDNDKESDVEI
Sequence of HDAC3 (Q9Y618 395-489 partner limits assumed): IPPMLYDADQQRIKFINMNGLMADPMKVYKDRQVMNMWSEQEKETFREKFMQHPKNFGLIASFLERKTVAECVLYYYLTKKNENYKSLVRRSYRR

| IC50 (HDAC6) [µM] | IC50 (HDAC10) [µM] | IC50 (HDAC2) [µM] | IC50 (HDAC3) [µM] | IC50 (HDAC1) [µM] | IC50 (HDAC8) [µM] | IC50 (HDAC11) [µM] | IC50 (HDAC5) [µM] | IC50 (HDAC4) [µM] | IC50 (HDAC7) [µM] | IC50 (HDAC9) [µM] | Molecule |
| --- | --- | --- | --- | --- | --- | --- | --- | --- | --- | --- | --- |
| 0.075 | 1.88 | 2.53 | 0.885 | 1.34 | 0.682 | 1.11 | 1.34 | 3.48 | 2.07 | 1.14 | COc1cc2cc(c1)C(=O)Nc1ccccc1NC(=O)[C@@H](CCCCCC(=O)NO)OC/C=C\2 [Example 2, 6-((Z)—(R)-19-methoxy-2,11-dioxo-13-oxa-3,10-diaza-tricyclo[15.3.1.0*4,9*]henicosa-1(21),4,6,8,15,17,19-heptaen-12-yl)-hexanoic hydroxamic acid] |
| 0.0044 | 0.627 | 0.584 | 0.331 | 0.245 | 0.297 | 0.379 | 0.496 | 1.69 | 2.23 | 0.602 | (S)-2-(6,18-dioxo-5,6,7,9,10,11,12,13,18,19-decahydrobenzo[5,6][1,4,7]-oxadiazacyclo-tetradecino[10,9-b]indol-7-yl)-N-hydroxyacetamide [Example 3] |
| 0.059 | 2.29 | 3.28 | 1.11 | 0.864 | 0.534 | 0.948 | 1.66 | 5.33 | 4.3 | 2.02 | COc1cc2cc(c1)C(=O)Nc1ccccc1NC(=O)[C@H](CCCCCC(=O)NO)OC/C=C\2 [Example 1, 6-((Z)—(S)-19-methoxy-2,11-dioxo-13-oxa-3,10-diaza-tricyclo[15.3.1.0*4,9*]henicosa-1(21),4,6,8,15,17,19-heptaen-12-yl)-hexanoic hydroxamic acid] |
